Literature values as cited in patent publication US11547674B2, “Protein-polymer hybrid biomaterials” (The Regents of the University of California, priority 2018, dated 2023).

Molecular target: Bacillus stearothermophillus LDH (Geobacillus stearothermophilus, UniProt P00344)
Settings: read-out: Km of oxamate for LDH

Bacillus stearothermophillus LDH, sequence (P00344 whole entry): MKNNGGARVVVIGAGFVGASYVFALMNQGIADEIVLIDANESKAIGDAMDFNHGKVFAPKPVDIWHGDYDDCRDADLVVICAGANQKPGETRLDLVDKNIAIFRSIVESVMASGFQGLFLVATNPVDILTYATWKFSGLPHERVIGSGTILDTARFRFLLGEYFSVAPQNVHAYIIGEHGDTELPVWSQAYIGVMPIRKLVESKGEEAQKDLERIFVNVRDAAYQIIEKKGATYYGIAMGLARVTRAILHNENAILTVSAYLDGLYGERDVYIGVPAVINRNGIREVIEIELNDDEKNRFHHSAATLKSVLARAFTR

SMILES: NC(=O)C(=O)O [oxamate]
- Km: 600 µM
